Source: US5047397A, “Linear analogs of atrial natriuretic peptides” (California Biotechnology Inc., priority 1988, dated 1991)
*1 amine or outer side, *2 acyl side, *3 side chain or, on linkers, in order; H or OH if unused. Where a SMILES comes first, the peptide text is derived from it. [ ]: non-standard residue; d: D form. The star is where a group is joined. Acetyl(2-naphthyloxy) = O=C(COc1ccc2ccccc2c1)*; Acetyl(2-naphthyl) = O=C(Cc1ccc2ccccc2c1)*; X7 = O=C(CN1CCC(C(=O)*)CC1)c1ccc2ccccc2c1; Fmoc = O=C(OCC1c2ccccc2-c2ccccc21)*; X1 = O=C(Cc1ccc(N[*:1])cc1)[*:2]; Nle = CCCC[C@H](N)C(=O)O; Inp = O=C(O)C1CCNCC1; Ahx = NCCCCCC(=O)O; Ava = NCCCCC(=O)O

biological target: T1, specific ANP receptor sites on BASM or BAE cells (Bos taurus, UniProt P10730); assay: Competitive displacement receptor binding of (125I)-rANP(126-150) on cultured cells; set-up: species or system bovine; conditions: not given
T1 construct: specific receptor sites on BASM or BAE cells; endogenous in cells; host or cells: cultured BASM and BAE cells
T1 sequence (P10730 42-537): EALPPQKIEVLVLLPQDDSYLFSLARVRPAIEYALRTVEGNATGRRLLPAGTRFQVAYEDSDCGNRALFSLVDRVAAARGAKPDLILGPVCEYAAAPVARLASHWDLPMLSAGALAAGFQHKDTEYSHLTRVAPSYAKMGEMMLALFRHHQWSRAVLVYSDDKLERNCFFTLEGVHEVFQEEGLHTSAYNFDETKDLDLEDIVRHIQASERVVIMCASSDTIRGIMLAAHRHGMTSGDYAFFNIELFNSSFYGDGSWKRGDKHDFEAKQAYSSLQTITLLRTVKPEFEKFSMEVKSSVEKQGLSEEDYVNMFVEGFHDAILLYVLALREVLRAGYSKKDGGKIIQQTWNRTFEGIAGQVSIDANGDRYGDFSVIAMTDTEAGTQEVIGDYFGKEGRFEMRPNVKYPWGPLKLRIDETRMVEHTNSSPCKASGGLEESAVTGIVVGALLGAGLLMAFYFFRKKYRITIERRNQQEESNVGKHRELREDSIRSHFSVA
Description: Analogous "competitive displacement" receptor binding assays are considered commonplace in the art for examining specific ligand-receptor interactions.
Assuming these ANP analogs act at one or more ANP receptor sites, then increased receptor affinity should reflect increased biological potency.

Structure (SMILES)	receptor binding / activity as judged by Ki, in words
CCCC[C@H](NC(=O)CNC(=O)CNC(=O)Cc1ccc2ccccc2c1)C(=O)N[C@H](C(=O)N[C@@H](CC(=O)O)C(=O)N[C@@H](CCCNC(=N)N)C(=O)N[C@H](C(N)=O)[C@@H](C)CC)[C@@H](C)CC [AP514, (2-NA)--G--G--Nle--I--D--R--I--NH2] ({Acetyl(2-naphthyl)}-GG[Nle]IDRI-NH2)	very low, if any, activity
CC[C@H](C)[C@H](NC(=O)[C@H](CCCNC(=N)N)NC(=O)CNC(=O)CNC(=O)Cc1ccc2ccccc2c1)C(=O)N[C@@H](CC(=O)O)C(=O)N[C@@H](CCCNC(=N)N)C(=O)N1CCC[C@H]1C(N)=O [AP519, (2-NA)--G--G--R--I--D--R--P--NH2] ({Acetyl(2-naphthyl)}-GGRIDRP-NH2)	very low, if any, activity

same assay, conditions: concentration of unlabeled peptide displacing 50% of maximal binding of 0.5 nM (125I)-rANP(126-150); BASM or BAE cells

Structure (SMILES)	Ki(app) [nM]
CC[C@H](C)[C@H](NC(=O)[C@H](CCCNC(=N)N)NC(=O)[C@H](CC(=O)O)NC(=O)[C@@H](NC(=O)[C@H](CCCNC(=N)N)NC(=O)CNC(=O)CNC(=O)COc1ccc2ccccc2c1)[C@@H](C)CC)C(N)=O [AP319, (2-NOA)--G--G--R--I--D--R--I--NH2] ({Acetyl(2-naphthyloxy)}-GGRIDRI-NH2)	6.0
CCNC(=O)CNC(=O)[C@@H](NC(=O)[C@H](CCCNC(=N)N)NC(=O)[C@H](CC(=O)O)NC(=O)[C@@H](NC(=O)[C@H](CCCNC(=N)N)NC(=O)CCCCNC(=O)Cc1ccc2ccccc2c1)[C@@H](C)CC)[C@@H](C)CC [AP530, (2-NA)--NH(CH2)4 CO--R--I--D--R--I--G--NH--(ethyl)] ({Acetyl(2-naphthyl)-Ava}-RIDRIG-NHEt)	50.5
CC[C@H](C)[C@H](NC(=O)[C@H](CCCNC(=N)N)NC(=O)[C@H](CC(=O)O)NC(=O)[C@@H](NC(=O)[C@H](CCCNC(=N)N)NC(=O)[C@@H](C)NC(=O)CNC(=O)[C@H](Cc1ccccc1)NC(=O)[C@H](C)N)[C@@H](C)CC)C(=O)NCC(=O)N[C@@H](C)C(N)=O [AP157, A--F--G--A^ --R--I--D--R--I--G--A--NH2] (H-AFG[dA]RIDRIGA-NH2)	5.90
CC[C@H](C)[C@H](NC(=O)[C@H](CCCNC(=N)N)NC(=O)[C@H](CC(=O)O)NC(=O)[C@@H](NC(=O)[C@H](CCCNC(=N)N)NC(=O)CCCCCNC(=O)Cc1ccc2ccccc2c1)[C@@H](C)CC)C(N)=O [AP329, (2-NA)--NH(CH2)5 CO--R--I--D--R--I--NH2] ({Acetyl(2-naphthyl)-Ahx}-RIDRI-NH2)	147.78
CCCC[C@H](NC(=O)CNC(=O)CNC(=O)Cc1ccc2ccccc2c1)C(=O)N[C@H](C(=O)N[C@@H](CC(=O)O)C(=O)N[C@@H](CCCNC(=N)N)C(=O)N[C@H](C(N)=O)[C@@H](C)CC)[C@@H](C)CC [AP514, (2-NA)--G--G--Nle--I--D--R--I--NH2] ({Acetyl(2-naphthyl)}-GG[Nle]IDRI-NH2)	267.0
CC[C@H](C)[C@H](NC(=O)[C@H](CCCNC(=N)N)NC(=O)[C@H](CC(=O)O)NC(=O)[C@@H](NC(=O)[C@H](CCCNC(=N)N)NC(=O)Cc1ccc(NC(=O)Cc2ccc3ccccc3c2)cc1)[C@@H](C)CC)C(N)=O [AP564] ({Acetyl(2-naphthyl)}-[X1]RIDRI-NH2)	10.1
CC[C@H](C)[C@H](NC(=O)[C@H](CCCNC(=N)N)NC(=O)[C@H](CC(=O)O)NC(=O)[C@@H](NC(=O)[C@H](CCCNC(=N)N)NC(=O)C1CCN(C(=O)COc2ccc3ccccc3c2)CC1)[C@@H](C)CC)C(N)=O [AP539] ({Acetyl(2-naphthyloxy)-Inp}-RIDRI-NH2)	9.1
CC[C@H](C)[C@H](NC(=O)[C@H](CCCNC(=N)N)NC(=O)[C@H](CC(=O)O)NC(=O)[C@@H](NC(=O)[C@H](CCCNC(=N)N)NC(=O)C1CCN(CC(=O)c2ccc3ccccc3c2)CC1)[C@@H](C)CC)C(N)=O [AP574] (X7-RIDRI-NH2)	26.5
CC[C@H](C)[C@H](NC(=O)[C@H](CCCNC(=N)N)NC(=O)[C@H](CC(=O)O)NC(=O)[C@@H](NC(=O)[C@H](CCCNC(=N)N)NC(=O)CCCCCNC(=O)COc1ccc2ccccc2c1)[C@@H](C)CC)C(N)=O [AP325, (2-NOA)--NH(CH2)5 CO--R--I--D--R--I--NH2] ({Acetyl(2-naphthyloxy)-Ahx}-RIDRI-NH2)	> 100
CC[C@H](C)[C@H](NC(=O)[C@H](CCCNC(=N)N)NC(=O)CNC(=O)CNC(=O)Cc1ccc2ccccc2c1)C(=O)N[C@@H](CC(=O)O)C(=O)N[C@@H](CCCNC(=N)N)C(=O)N[C@H](CC(C)C)C(N)=O [AP536, (2-NA)--G--G--R--I--D--R--L^ --NH2)] ({Acetyl(2-naphthyl)}-GGRIDR[dL]-NH2)	106.4
CC[C@H](C)[C@H](NC(=O)[C@H](CCCNC(=N)N)NC(=O)[C@H](CC(=O)O)NC(=O)[C@@H](NC(=O)[C@H](CCCNC(=N)N)NC(=O)CCCCNC(=O)OCC1c2ccccc2-c2ccccc21)[C@@H](C)CC)C(N)=O [AP323, (FMOC)--NH(CH2)4 CO--R--I--D--R--I--NH2] ({Fmoc-Ava}-RIDRI-NH2)	162.6
CC[C@H](C)[C@H](NC(=O)[C@H](CCCNC(=N)N)NC(=O)CNC(=O)CNC(=O)Cc1ccc2ccccc2c1)C(=O)N[C@@H](CC(=O)O)C(=O)N[C@@H](CCCNC(=N)N)C(=O)N[C@H](Cc1ccccc1)C(N)=O [AP537, (2-NA)--G--G--R--I--D--R--F^ --NH2)] ({Acetyl(2-naphthyl)}-GGRIDR[dF]-NH2)	> 160
CC[C@H](C)[C@H](NC(=O)[C@H](CCCNC(=N)N)NC(=O)[C@H](CC(=O)O)NC(=O)[C@@H](NC(=O)[C@H](CCCNC(=N)N)NC(=O)Cc1ccc(NC(=O)COc2ccc3ccccc3c2)cc1)[C@@H](C)CC)C(N)=O [AP792] ({Acetyl(2-naphthyloxy)}-[X1]RIDRI-NH2)	6.3
CC[C@H](C)[C@H](NC(=O)[C@H](CCCNC(=N)N)NC(=O)[C@H](CC(=O)O)NC(=O)[C@@H](NC[C@H](CCCCN)NC(=O)Cc1ccc(NC(=O)Cc2ccc3ccccc3c2)cc1)[C@@H](C)CC)C(N)=O [AP806]	14.0
CC[C@H](C)[C@H](NC(=O)[C@H](CCCNC(=N)N)NC(=O)CNC(=O)CNC(=O)Cc1ccc2ccccc2c1)C(=O)N[C@@H](CC(=O)O)C(=O)N[C@@H](CCCNC(=N)N)C(=O)N1CCC[C@H]1C(N)=O [AP519, (2-NA)--G--G--R--I--D--R--P--NH2] ({Acetyl(2-naphthyl)}-GGRIDRP-NH2)	> 400
CC[C@H](C)[C@H](NC(=O)[C@H](CCCCN)NC(=O)[C@H](CC(=O)O)NC(=O)[C@@H](NC(=O)[C@H](CCCNC(=N)N)NC(=O)Cc1ccc(NC(=O)Cc2ccc3ccccc3c2)cc1)[C@@H](C)CC)C(N)=O [AP799] ({Acetyl(2-naphthyl)}-[X1]RIDKI-NH2)	3.6
CCNC(=O)[C@@H](NC(=O)[C@H](CCCNC(=N)N)NC(=O)[C@H](CC(=O)O)NC(=O)[C@@H](NC(=O)[C@H](CCCNC(=N)N)NC(=O)CNC(=O)CNC(=O)Cc1ccc2ccccc2c1)[C@@H](C)CC)[C@@H](C)CC [AP328, (2-NA)--G--G--R--I--D--R--I--NH(ethyl)] ({Acetyl(2-naphthyl)}-GGRIDRI-NHEt)	19.87
CC[C@H](C)[C@H](NC[C@H](CCCCN)NC(=O)[C@H](CC(=O)O)NC(=O)[C@@H](NC(=O)[C@H](CCCNC(=N)N)NC(=O)Cc1ccc(NC(=O)Cc2ccc3ccccc3c2)cc1)[C@@H](C)CC)C(N)=O [AP807]	112
CC[C@H](C)[C@H](NC(=O)[C@H](CCCNC(=N)N)NC(=O)[C@H](CC(=O)O)NC(=O)[C@@H](NC(=O)[C@H](CCCNC(=N)N)NC(=O)CNC(=O)CNC(=O)OCC1c2ccccc2-c2ccccc21)[C@@H](C)CC)C(N)=O [AP311, (FMOC)--G--G--R--I--D--R--I--NH2] (Fmoc-GGRIDRI-NH2)	10.33
